The values below are quoted from earlier work in patent publication US20110097427A1, “Molecular Targets and Dietary Modulators of Exercise-Induced Muscle Damage” (priority 2009, published 2011).

The conditions of this series: Risérus et al., 2008, Diabetes 57: 332-339.

Take `Cc1cc(SCc2sc(-c3ccc(C(F)(F)F)cc3)nc2C)ccc1OCC(=O)O` [GW501516]: the urinary isoprostanes entry is “reduced”.
